In patent US20180284132A1, “KITS FOR STRATIFYING SCOLIOTIC SUBJECTS” (CHU SAINTE-JUSTINE, priority 2013, published 2018):

Legend:
[1] = system: response to Gi stimulation; assay: Effect of serine/threonine kinase inhibitors on response to Gi stimulation in osteoblasts (CDS); type: cell-based, human; conditions: inhibitor 5 μM, 1 hour before agonist
Protocol: FIG. 13A-FIG. 13B show the effect of various serine/threonine kinase inhibitors on response to Gi stimulation in osteoblasts from control and AIS functional groups. Cells were treated with Protein kinase A (PKA) inhibitor H89 (5 μM), Protein kinase C (PKC) inhibitor Gö6983 (5 μM), Ca^2+/calmodulin-dependent protein kinase (CaMK) (1,2,4) inhibitor STO-609 acetate (5 μM), Ca^2+/calmodulin-dependent protein kinase II (CaMK-2) inhibitor KN93 (5 μM), Casein kinase 1 (CK1) inhibitor D4476 (5 μM) or vehicle for 1 hour prior to stimulation with (FIG. 13A) LPA (10^−6 M) or (FIG. 13B) Somatostatin (10^−6 M). Response to Gi stimulation was measured by CDS. Data were normalised to response in osteoblasts treated with vehicle (% response in presence of vehicle shown on the y-axis and measured by CDS), and are expressed as mean±SE, of n=12 patients in each functional group. * P<0.05, **P<0.01, ***P<0.001, vs control group.
(§1) The functionality of Gi, Gs and Gq proteins was evaluated by CDS assay in osteoblasts, and the functionality of Gi was also evaluated by CDS assay in myoblasts and PBMCs from the same individuals, using CellKey™ apparatus, as previously described (Akoume et al., 2010 and WO 2010/040234, 2010 to Moreau et al.).
In order to identify putative serine/threonine kinases phosphorylating Gi isoforms in AIS, control and AIS osteoblasts were treated with a panel of serine/threonine kinase inhibitors prior to their stimulation with two distinct agonists (LPA and somatostatin). Of note, Gi stimulation induced via LPA or somatostatin receptor activation by their agonists in control osteoblasts was not affected by any kinase inhibitor (FIG. 13A-FIG. 13B). […] Cellular response in FG3 osteoblasts was not improved by inhibition of neither of PKC nor CaMK.

[2] = system: response to Gi stimulation; assay: Effect of Gi and Gs siRNA on response to Gi stimulation in osteoblasts (CDS); type: cell-based, human
Protocol: FIG. 12A-FIG. 12H show the differential effects of Gi and Gs siRNA on response to Gi stimulation in AIS functional groups. Osteoblasts from (FIG. 12A) control subjects, (FIG. 12B) FG3, (FIG. 12C) FG2; and (FIG. 12D) FG1 were transfected with Gi1, Gi2, Gi3 or Gs siRNA alone or in combination, or with scrambled siRNA, as indicated in Example 1—Materials and Methods. Efficiency of siRNA was verified with qPCR in each functional group (FIG. 12E to FIG. 12H) 48 hours after transfection, and response to Gi stimulation was measured by CDS and evaluated by challenging cells with Apelin-17, LPA or Somatostatin. Results from a single representative subject for each group are presented. Data were normalised to response in cells transfected with scrambled siRNA (% response shown on the y-axis and measured by CDS), and are expressed as mean±SE, of n=6 patients in each functional group. * P<0.05, **P<0.01, ***P<0.001, vs. control group.
as §1
All Gi1, Gi2, Gi3, Gs and scrambled siRNA were obtained from Ambion (Ambion USA). Osteoblasts from control subjects and AIS patients were transiently transfected in serum-free medium, using Lipofectamine RNAiMAX™ reagent (Invitrogen) according to the manufacturer's instructions and functional experiments were performed 48 h post transfection. The gene knockdown was evaluated by quantitative real-time PCR (qPCR).
Silencing of each gene reduced by 75-85% the expression of the corresponding mRNA in osteoblasts from control and the three AIS groups (FIGS. 12E-H). […] The response to each tested agonist was reduced by at least 75% by silencing Gi3 alone in FG2 osteoblasts (FIG. 12C), and by 90% by silencing Gi1 alone in FG3 osteoblasts ([…]) confirming that the residual response to Gi stimulation is mediated by Gi3 and Gi1 isoforms in FG2 and FG3 groups, respectively. In FG1 osteoblasts, response to each agonist was reduced by 50% following the depletion of all Gi isoforms by siRNA, and was not affected by the knockdown of individual Gi isoforms ([…]).

melatonin receptor [3] = assay: Cellular response of osteoblasts to melatonin receptor agonists, cellular dielectric spectroscopy (CDS); type: cell-based, human; conditions: for order of agonist potency: response at maximum concentration (10 μM), osteoblasts of control and AIS groups
Protocol: (§2) Data were normalised to maximal response (% maximal response) in cells from control subjects. […] The impedance represented in y-axis as dZiec, indicates the resistance (ohms) of the cells toward the electric current applied by the Cellkey™ apparatus and represents the integrated cellular response. […] Cellular responses shown on the y-axis in (FIG. 3A) to (FIG. 3E) were measured by CDS.
Osteoblasts were isolated from bone specimens obtained intraoperatively from vertebras (varying from T3 to L4 according to the surgical procedure performed) and from other anatomical sites (tibia or femur) in AIS patients and trauma control cases, respectively as previously described (Moreau et al., 2004).
as §1
The response produced with their maximum concentration (10 μM) in osteoblasts from control subjects and AIS patients of each functional group was compared.

beta-adrenergic receptor = assay: Functional status of Gs protein in osteoblasts, isoproterenol challenge (CDS); type: cell-based, human
Protocol: as §1

melatonin receptor [4] = conditions: normal osteoblasts; CDS (Akoume et al., 2010); cited from earlier work
Gi proteins = assay: Inhibition by GPAnt-2 or pertussis toxin of osteoblast response to Gi-coupled receptor agonists (CDS); type: cell-based, human; conditions: for effect on cellular response to melatonin: 16 hours
Protocol: as §2, §1

Compound: STO-609 acetate
- effect on response to Gi stimulation via LPA or somatostatin ([1]; FG1 osteoblasts): significantly increased
- effect on response to Gi stimulation via LPA or somatostatin ([1]; FG2 osteoblasts): increased the signalling response
- effect on response to Gi stimulation via LPA or somatostatin ([1]; FG3 osteoblasts): not improved

Compound: COc1ccc2c(c1)c(C1=C(c3c[nH]c4ccccc34)C(=O)NC1=O)cn2CCCN(C)C [Gö8963, Gö6983]
- effect on response to Gi stimulation via LPA or somatostatin ([1]; FG1 osteoblasts): significantly increased
- effect on response to Gi stimulation via LPA or somatostatin ([1]; FG2 osteoblasts): devoid of significant effect
- effect on response to Gi stimulation via LPA or somatostatin ([1]; FG3 osteoblasts): not improved

Compound: Gs siRNA: siRNA from Ambion, ACAACAUGGUCAUCCGGGAGGACAA (SEQ ID NO: 100)
- reduction of response to each tested agonist ([2]; FG1 osteoblasts): 50%
- reduction of response to each tested agonist ([2]; FG2 osteoblasts): devoid of effect
- reduction of response to each tested agonist ([2]; FG3 osteoblasts): devoid of effect
- reduction of response to each tested agonist ([2]; control group osteoblasts): devoid of effect

Compound: NC(=O)c1ccc(-c2nc(-c3ccc4c(c3)OCCO4)c(-c3ccccn3)[nH]2)cc1 [D4476]
- effect on response to Gi stimulation via LPA or somatostatin ([1]; FG1 osteoblasts): increased response
- effect on response to Gi stimulation via LPA or somatostatin ([1]; FG3 osteoblasts): increased response

Compound: COc1ccc2[nH]c(-c3ccccc3)c(CCNC(C)=O)c2c1 [phenylmelatonin]
- order of agonist potency (melatonin receptor [3]): phenylmelatonin>iodomelatonin>melatonin

Compound: CC(C)NCC(O)c1ccc(O)c(O)c1 (stereo not shown) [isoproterenol]
- cellular response, AIS osteoblasts vs control osteoblasts (beta-adrenergic receptor): significantly enhanced

Compound: COc1ccc2[nH]cc(CCNC(C)=O)c2c1 [melatonin]
- concentration at which the response reaches a plateau (melatonin receptor [3]; osteoblasts, all control and AIS groups): 1 µM
- cellular response to melatonin (melatonin receptor [3]; osteoblasts, all control and AIS groups, CDS): concentration-dependent increase of response
- order of magnitude of the maximum response from highest to lowest (melatonin receptor [3]; osteoblasts, control vs AIS functional groups): control group, FG3, FG2 and FG1
- order of agonist potency (melatonin receptor [3]): phenylmelatonin>iodomelatonin>melatonin
- G protein dependence of cellular response to melatonin receptor stimulation (melatonin receptor [4]): mainly Gi-dependent in normal osteoblasts

Compound: O=S(=O)(NCCNC/C=C/c1ccc(Br)cc1)c1cccc2cnccc12 [H89]
- effect on response to Gi stimulation via LPA or somatostatin ([1]; FG1 osteoblasts): increased the signalling response
- effect on response to Gi stimulation via LPA or somatostatin ([1]; FG2 osteoblasts): increased the signalling response
- effect on response to Gi stimulation via LPA or somatostatin ([1]; FG3 osteoblasts): increased the signalling response

Compound: COc1ccc(S(=O)(=O)N(CCO)c2ccccc2CN(C)C/C=C/c2ccc(Cl)cc2)cc1 [KN93]
- effect on response to Gi stimulation via LPA or somatostatin ([1]; FG1 osteoblasts): unaffected
- effect on response to Gi stimulation via LPA or somatostatin ([1]; FG2 osteoblasts): increased the signalling response
- effect on response to Gi stimulation via LPA or somatostatin ([1]; FG3 osteoblasts): not improved

Compound: Gi2 siRNA: siRNA from Ambion, GAGGACCUGAAUAAGCGCAAAGACA (SEQ ID NO: 98)
- reduction of response to each tested agonist ([2]; control group osteoblasts): not significantly affected

Compound: COc1ccc2[nH]c(I)c(CCNC(C)=O)c2c1 [iodomelatonin]
- order of agonist potency (melatonin receptor [3]): phenylmelatonin>iodomelatonin>melatonin

Compound: pertussis toxin [PTX]
- effect on cellular response to melatonin (Gi proteins; FG1 osteoblasts, maximal concentration): enhanced the response to melatonin
- effect on cellular response to melatonin (Gi proteins; FG2 and FG3 osteoblasts, increasing concentration): reduced the cellular response to melatonin
- effect on response to mastoparan (Gi proteins; high concentrations, all AIS and control groups): almost abolished
- inhibition curve patterns (Gi proteins; response to any of the five synthetic agonists, osteoblasts (GPAnt-2 4 h, PTX 16 h)): curve patterns similar to those obtained with melatonin
